Data: patent US20110123654A1, “SYNERGISTIC ENHANCEMENT OF CELLULAR ERGOGENIC NUTRIENT UPTAKE, LIKE CREATINE OR CARNITINE, WITH TARRAGON” (priority 2008, published 2011)

Test system: blood glucose levels
Test: Glucose challenge test in rats
Format: in vivo
Details: compared to control; p.o. 30 min before i.p. glucose challenge; non-fasted male Wistar rats
Description: A common way of testing for an effect of extracts or new chemical entities on blood glucose levels is the glucose challenge test (Verspohl, E. J.: Recommended testing in diabetes research. Planta Med 68 (7): 581-90, 2002) in which rats are given the extract, control, or a known antidiabetic substance with challenge an intraperitoneal (i.p.) dose of glucose. The extracts or extract PLUS creatine are given orally 30 min. before the glucose challenge. Blood samples are taken sublingual at time points 0, 15, 30, 60, and 120 minutes for the glucose challenge. This sampling scheme ensures to monitor both effects of extracts on the blood glucose levels after glucose challenge closely enough.
Male non-fasted Wistar rats weighing 250-300 g were purchased from Harlan (Indianapolis, Ind., U.S.A). […]
Blood was drawn at the appropriate time points from the sublingual vein after a short halothane anesthesia and stored at 4° C. with addition of heparin. […] The supernatant plasma was taken and analyzed using an autoanalyzer (Merck, Darmstadt). […]
Both percent and AUC data were analyzed by one-way ANOVA and Student-Newman-Keuls Multiple Comparison Test using Graphpad 4.0 Software, San Diego, USA. The AUC (area under the curve) was calculated using the trapezoidal rule without extensions beyond the last time point measured.

SMILES: CN(CC(=O)O)C(=N)N.O [creatine monohydrate]
- glucose disposal: no effect
